Laboratory results reported in patent US8785439B2, “2,5,7-substituted oxazolopyrimidine derivatives” (Sanofi, priority 2010, dated 2014).

Target: T1, human Edg-1 receptor (Homo sapiens, UniProt P21453)
T1 construct: FLAG (N); expressed in transfected cells; membrane preparation
Experiment: GTP-γ-S assay using human Edg-1 receptors (SPA, CHO Flp-In cell membrane preparation)
Type: biochemical
Conditions: test compound at 10 μM; high control 10 μM S1P regarded as 100% activation; background-corrected; triplicate; read-out: % Activation (Edg-1 receptor activation in percent of the activation by 10 μM S1P)
Excerpt: Determination of the Pharmacological Activity A) GTP-γ-S Assay Using Human Edg-1 Receptors
In order to determine the Edg-1 receptor activation by the compounds of the invention, a GTP-γ-S (guanosine 5′-[γ-thio]triphosphate) assay for G-protein coupled receptor binding based on the scintillation proximity assay principle was used, employing a cell membrane preparation from a CHO Flp-In cell line which constitutively overexpresses the human Edg-1 receptor.
The Flp-In™ expression system (Invitrogen, cat. no. K6010-01) allows the generation of stable mammalian cell lines into which the gene of interest has been integrated through homologous recombination at a specific genomic location called Flp Recombination Target (FRT) site by means of a Flp recombinase encoded by the pOG44 expression plasmid. The integration of the pcDNA5/FRT expression construct into the Flp-In host cell line genome results in the transcription of the gene of interest. The stably transfected cells become hygromycin-resistant.
One day prior to transfection, 200 000 Flp-In-CHO cells were seeded in Ham F-12 medium (Invitrogen, cat. no. 31765) supplemented with 10% fetal calf serum (FCS; Perbio Science, cat. no. SH30068.03) in a 6-well plate and incubated at 37° C./5% CO2 overnight. Using the FuGENE® 6 transfection reagent (Roche, cat. no. 11988387001), cells were cotransfected with the Flp recombinase expression plasmid pOG44 and a modified plasmid additionally containing the edg-1 gene (accession no. NM_001400) termed as pcDNA5-FRT-TO_nFLAG_DEST-EDG-1 with a 9:1 ratio. To obtain the modified pcDNA5-FRT-TO_nFLAG_DEST plasmid, the Invitrogen plasmid pcDNA5/FRT/TO (Invitrogen, cat. no. V6520-20) was adapted to the Gateway® (Invitrogen) cloning system by inserting a Gateway cassette containing attR recombination sites flanking a ccdB gene and a chloramphenicol-resistance gene (Gateway conversion system, Invitrogen, cat. no. 11828-029). In addition a FLAG tag epitope was added before the 5′ att recombination site to allow recombinant expression of N-terminally FLAG-tagged proteins.
For the transfection of one well, 1.08 μg of pOG44 and 0.12 μg of pcDNA5-FRT-TO_nFLAG_DEST-EDG-1 were mixed with 100 μl of serum-free Ham F-12 medium containing 6 μl of FuGENE® 6 transfection reagent. After 20 min of incubation, the transfection reagent/DNA complex was distributed dropwise on the cells. The cells were incubated for 24 h at 37° C. Then the cells from 3 wells each were transferred to a T75 flask (Greiner Cellstar®, cat. no. 658175) containing Ham F-12 medium supplemented with 10% of FCS but without antibiotic and were incubated another 24 h. 48 h after transfection, the medium was replaced by selection medium (Ham F-12 supplemented with 10% of FCS and 300 μg/ml of hygromycin B (Invitrogen, cat. no. 10687-010)). The medium was exchanged every 2 to 3 days until a resistant population of cells had grown. […] After 2 weeks of selection, the cells were transferred into T175 flasks (Greiner Cellstar®, cat. no. 660175) and cultivated for batch production. Cells were harvested from the culture flasks by short treatment (2 to 5 min) with Accutase (PAA, cat. no. L11-007), resuspended in selection medium (see above) and centrifuged at 200×g for 5 min. Cells were resuspended in a mixture of 90% of FCS and 10% of dimethylsulfoxide and stored frozen in liquid nitrogen.
A membrane preparation was obtained by standard methods from the afore-described CHO Flp-In cell line constitutively overexpressing the human Edg-1 receptor. Briefly, the cryopreserved cells were taken in culture and grown until confluency in T175 cell culture flasks (Becton Dickinson, cat. no. 35 5001). […]

T1 sequence (P21453 whole entry): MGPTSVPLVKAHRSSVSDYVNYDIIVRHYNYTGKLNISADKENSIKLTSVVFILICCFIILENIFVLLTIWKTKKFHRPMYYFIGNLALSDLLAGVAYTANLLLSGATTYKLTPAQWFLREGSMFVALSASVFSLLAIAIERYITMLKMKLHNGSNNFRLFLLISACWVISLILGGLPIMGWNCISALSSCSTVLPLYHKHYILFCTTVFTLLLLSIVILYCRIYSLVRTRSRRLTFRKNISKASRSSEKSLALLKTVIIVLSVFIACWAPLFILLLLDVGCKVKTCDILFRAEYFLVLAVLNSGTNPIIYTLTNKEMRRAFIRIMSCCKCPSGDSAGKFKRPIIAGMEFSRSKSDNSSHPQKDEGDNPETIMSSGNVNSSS

Compound | activation at 10 µM
Cc1cccc(-c2nc3c(OCC4CC4)nc(SC4CCS(=O)(=O)C4)nc3o2)c1 (centres unmarked) [Example 28, 7-cyclopropylmethoxy-5-(1,1-dioxo-tetrahydro-1lambda6-thiophen-3-ylsulfanyl)-2-(3-methyl-phenyl)-oxazolo[5,4-d]pyrimidine] | 69%
CCCOc1nc(Oc2cccnc2)nc2oc(-c3cccc(OC)c3)nc12 [Example 41, 2-(3-methoxy-phenyl)-7-propoxy-5-(pyridin-3-yloxy)-oxazolo[5,4-d]pyrimidine] | 102%
CCCOc1nc(Oc2ccc(C)cc2C)nc2oc(-c3cccc(C)c3)nc12 [Example 53, 5-(2,4-dimethyl-phenoxy)-7-propoxy-2-(3-methyl-phenyl)-oxazolo[5,4-d]pyrimidine] | 73%
CCCOc1nc(Oc2ccc(CC)cc2)nc2oc(-c3cccc(C)c3)nc12 [Example 122, 5-(4-ethyl-phenoxy)-7-propoxy-2-(3-methyl-phenyl)-oxazolo[5,4-d]pyrimidine] | 65%
CCCOc1nc(Oc2cc(F)ccc2F)nc2oc(-c3cccc(C)c3)nc12 [Example 94, 5-(2,5-difluoro-phenoxy)-7-propoxy-2-(3-methyl-phenyl)-oxazolo[5,4-d]pyrimidine] | 122%
CCCOc1nc(Oc2ccccc2F)nc2oc(-c3ccc(Cl)c(Cl)c3)nc12 [Example 15, 2-(3,4-dichloro-phenyl)-5-(2-fluoro-phenoxy)-7-propoxy-oxazolo[5,4-d]pyrimidine] | 95%
CCCOc1nc(Oc2cccc3c2OC(C)(C)C3)nc2oc(-c3cccc(C)c3)nc12 [Example 83, 5-(2,2-dimethyl-2,3-dihydro-benzofuran-7-yloxy)-7-propoxy-2-(3-methyl-phenyl)-oxazolo[5,4-d]pyrimidine] | 63%
CCCOc1nc(NC2CCOCC2)nc2oc(-c3cc(F)ccc3Cl)nc12 [Example 57, [2-(2-chloro-5-fluoro-phenyl)-7-propoxy-oxazolo[5,4-d]pyrimidin-5-yl]-(tetrahydro-pyran-4-yl)-amine] | 80%
CCCOc1nc(Oc2c(C)cccc2C)nc2oc(-c3cccc(C)c3)nc12 [Example 132, 5-(2,6-dimethyl-phenoxy)-7-propoxy-2-(3-methyl-phenyl)-oxazolo[5,4-d]pyrimidine] | 129%
CCCOc1nc(Oc2ccccc2CCC)nc2oc(-c3cccc(C)c3)nc12 [Example 126, 7-propoxy-5-(2-propyl-phenoxy)-2-(3-methyl-phenyl)-oxazolo[5,4-d]pyrimidine] | 121%
CCCOc1nc(Oc2ccc(C#N)cc2OC)nc2oc(-c3cccc(C)c3)nc12 [Example 92, 3-methoxy-4-(7-propoxy-2-(3-methyl-phenyl)-oxazolo[5,4-d]pyrimidin-5-yloxy)-benzonitrile] | 51%
CCCOc1nc(Oc2c(Cl)cccc2Cl)nc2oc(-c3cccc(C)c3)nc12 [Example 86, 5-(2,6-dichloro-phenoxy)-7-propoxy-2-(3-methyl-phenyl)-oxazolo[5,4-d]pyrimidine] | 98%
CCCOc1nc(Oc2ccc(C#N)c(F)c2)nc2oc(-c3cccc(C)c3)nc12 [Example 134, 2-fluoro-4-(7-propoxy-2-(3-methyl-phenyl)-oxazolo[5,4-d]pyrimidin-5-yloxy)-benzonitrile] | 104%
CCCOc1nc(Oc2cccc(SC(F)(F)F)c2)nc2oc(-c3cccc(F)c3)nc12 [Example 69, 2-(3-fluoro-phenyl)-7-propoxy-5-(3-trifluoromethylsulfanyl-phenoxy)-oxazolo[5,4-d]pyrimidine] | 41%
CCCOc1nc(Oc2cc(F)ccc2C)nc2oc(-c3cccc(C)c3)nc12 [Example 50, 5-(5-fluoro-2-methyl-phenoxy)-7-propoxy-2-(3-methyl-phenyl)-oxazolo[5,4-d]pyrimidine] | 107%
CCCOc1nc(Oc2ccc(Cl)c(F)c2)nc2oc(-c3cccc(C)c3)nc12 [Example 74, 5-(4-chloro-3-fluoro-phenoxy)-7-propoxy-2-(3-methyl-phenyl)-oxazolo[5,4-d]pyrimidine] | 69%
CCCOc1nc(Oc2cc(F)cc(F)c2)nc2oc(-c3cccc(C)c3)nc12 [Example 127, 5-(3,5-difluoro-phenoxy)-7-propoxy-2-(3-methyl-phenyl)-oxazolo[5,4-d]pyrimidine] | 110%
CCCOc1nc(Oc2cccnc2)nc2oc(-c3cccc(O)c3)nc12 [Example 43, 3-[7-propoxy-5-(pyridin-3-yloxy)-oxazolo[5,4-d]pyrimidin-2-yl]-phenol] | 98%
CCCOc1nc(Oc2ccc(C(F)(F)F)cc2Cl)nc2oc(-c3cccc(C)c3)nc12 [Example 145, 5-(2-chloro-4-trifluoromethyl-phenoxy)-7-propoxy-2-(3-methyl-phenyl)-oxazolo[5,4-d]pyrimidine] | 82%
CCCOc1nc(Oc2cccc(C(C)(C)C)c2)nc2oc(-c3cccc(C)c3)nc12 [Example 125, 5-(3-tert-butyl-phenoxy)-7-propoxy-2-(3-methyl-phenyl)-oxazolo[5,4-d]pyrimidine] | 61%
CCCOc1nc(Sc2ccccc2)nc2oc(-c3ccc(Cl)c(Cl)c3)nc12 [Example 156, 2-(3,4-dichloro-phenyl)-5-phenylsulfanyl-7-propoxy-oxazolo[5,4-d]pyrimidine] | 40%
CCCOc1nc(Oc2ccccc2C(F)(F)F)nc2oc(-c3cccc(C)c3)nc12 [Example 141, 7-propoxy-2-(3-methyl-phenyl)-5-(2-trifluoromethyl-phenoxy)-oxazolo[5,4-d]pyrimidine] | 103%
CCCOc1nc(Oc2cc(F)cc(C(F)(F)F)c2)nc2oc(-c3cccc(C)c3)nc12 [Example 144, 5-(3-fluoro-5-trifluoromethyl-phenoxy)-7-propoxy-2-(3-methyl-phenyl)-oxazolo[5,4-d]pyrimidine] | 76%
CCCOc1nc(Oc2cc(Cl)ccc2Cl)nc2oc(-c3cccc(C)c3)nc12 [Example 120, 5-(2,5-dichloro-phenoxy)-7-propoxy-2-(3-methyl-phenyl)-oxazolo[5,4-d]pyrimidine] | 86%
CCCOc1nc(Oc2ccc(C)cc2)nc2oc(-c3cccc(C)c3)nc12 [Example 73, 7-propoxy-2-(3-methyl-phenyl)-5-p-tolyloxy-oxazolo[5,4-d]pyrimidine] | 80%
CCCOc1nc(SC2CCS(=O)(=O)C2)nc2oc(-c3cccc(C)c3)nc12 (centres unmarked) [Example 27, 5-(1,1-dioxo-tetrahydro-1lambda6-thiophen-3-ylsulfanyl)-7-propoxy-2-(3-methyl-phenyl)-oxazolo[5,4-d]pyrimidine] | 93%
CCCOc1nc(Oc2ccc(Cl)cc2OC)nc2oc(-c3cc(F)ccc3Cl)nc12 [Example 63, 2-(2-chloro-5-fluoro-phenyl)-5-(4-chloro-2-methoxy-phenoxy)-7-propoxy-oxazolo[5,4-d]pyrimidine] | 80%
CCCOc1nc(Oc2cc(C)cc(C)c2C)nc2oc(-c3cccc(C)c3)nc12 [Example 123, 7-propoxy-2-(3-methyl-phenyl)-5-(2,3,5-trimethyl-phenoxy)-oxazolo[5,4-d]pyrimidine] | 65%
CCCOc1nc(Oc2cccc(S(N)(=O)=O)c2)nc2oc(-c3cccc(F)c3)nc12 [Example 23, 3-[2-(3-fluoro-phenyl)-7-propoxy-oxazolo[5,4-d]pyrimidin-5-yloxy]-benzenesulfonamide] | 47%
